Data published in patent US9265268B2, “Method of handling bananas” (priority 2009, dated 2016).

Tested on: bananas
Experiment: Example US-3: comparison of production batches of MAP
Format: in vivo, Musa
Description: Bananas were harvested and shipped to Ephrata, Pa. as described in Example US-1 above. Upon arrival, bananas were removed from poly liners and placed into one of three types of bags: • (1) T-bags (as described above) • (2) MAP bags type M (as described above) • (3) MAP bags type D (as described above). Bananas in bags were exposed to the ripening cycle described above, except that the first day (“day 0”) of the ripening cycle was omitted. The bananas that were exposed to 1-MCP received that exposure when they were at color stage 2 to 2.2.
Additionally, a group of bananas remained in their bags at 17.8° C. for 17 days after exposure to 1-MCP and were evaluated at the end of those 17 days.

[1] = MAP with non-zero 1-MCP, 17 days in bags at 17.8° C., versus MAP without 1-MCP or T-bags with 1-MCP

CC1=CC1 [1-MCP, 1-methylcyclopropene]
development of sugar spots on holding at 17.8° C. (MAP and non-zero 1-MCP): delayed the development of sugar spots | color-stage numbers [1]: lower color-stage numbers | number of sugar spots [1]: lower number of sugar spots
